These are literature values, as cited in patent US12377031B2, “Cosmetic compositions comprising 4-hydroxyacetophenone” (L'OREAL, priority 2020, dated 2025).

Where only a bound is given, the exact number is not on record here.

In the case of `CC(=O)c1ccc(O)cc1` [4-hydroxyacetophenone, 4-Hydroxyacetophenone], the “heating temperature required to solubilize into aqueous systems” value is no less than 60 °C and the solubility in water entry was “limited solubility”.
